These results are taken from ChEMBL document CHEMBL1201862, “PubChem BioAssay data set” (2004).

Common to all, as to test: NCI tumour cell line growth inhibition, 48 h
For assay [1], the system named is BT-549.
Assay [2] concerns SNB-75.
In assay [3] the test system is SR.
Assay [4] deals with KM12.
The test system of assay [5] is NCI/ADR-RES.
Assay [6] relates to UACC-257.
Assay [7] deals with HCC 2998.
For assay [8], the system named is MCF7.
In assay [9] the test system is NCI-H522.
Assay [10] has as its system RXF 393.
For assay [11], the system named is SK-OV-3.
For assay [12], the system named is NCI-H226.
In assay [13] the test system is SK-MEL-2.
Assay [14] relates to MDA-MB-231.
Assay [15] has as its system MOLT-4.
Assay [16] deals with UO-31.
In assay [17] the test system is A549.
The subject of assay [18] is NCI-H23.
Assay [19] relates to MDA-MB-435.
Assay [20] relates to Malme-3M.

Each structure is given as a SMILES string.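 Interpolation was linear, between the two tested concentrations surrounding the appropriate level; five concentrations were tested over 48 hours in 96-well plates. The concentration for 50% growth inhibition is given as GI50.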 Active and inactive are the calls of the source. Cut-off read from the data, not from the text of the source: active = GI50 up to about 1.1 µM and inactive = higher.

`O=C1C(N2CCN(CCOCCO)CC2)=C(Cl)C(=O)c2ncccc21`: the GI50 in [1] is 4.89 µM (inactive); in assay [2], 38.3 µM (inactive); in assay [3], > 10 µM (inactive); in [4] it was > 10 µM (inactive); in [5] it was 37.4 µM (inactive); in assay [6], 22 µM (inactive). The GI50 was > 10 µM (inactive) in assay [7]; 3.78 µM (inactive) in [8]; 2.08 µM (inactive) in assay [9]; 20 µM (inactive) in [10]; > 10 µM (inactive) in [11]; > 10 µM (inactive) in [12]. Further, the GI50 in assay [13] was 20.9 µM (inactive); in assay [14] it was 19.2 µM (inactive); in [15], 2.37 µM (inactive); in assay [16], 17.7 µM (inactive); in [17], > 10 µM (inactive); in [18] it was 20.3 µM (inactive). For the same compound, the figures for the GI50 in assay [19] and in assay [20] were 1.88 µM (inactive) and 8.77 µM (inactive), respectively.
Regarding `O=c1c2ccccc2nc(Nc2cccc(Cl)c2)n1/N=C/C=C/c1ccccc1`, the GI50 was > 100 µM (inactive) in assay [1]; 45.4 µM (inactive) in assay [2]; 29.6 µM (inactive) in [3]; > 100 µM (inactive) in assay [4]; 63.5 µM (inactive) in assay [5]; 85.9 µM (inactive) in assay [6]. Further, the GI50 was 94 µM (inactive) in assay [7]; 26.3 µM (inactive) in [8]; 50.5 µM (inactive) in assay [9]; > 100 µM (inactive) in [10]; 70 µM (inactive) in assay [11]; 99.5 µM (inactive) in assay [12]. Besides, the GI50 is > 100 µM (inactive) in [13]; 71 µM (inactive) in assay [14]; > 100 µM (inactive) in [15]; > 100 µM (inactive) in assay [16]; 75.3 µM (inactive) in assay [17]; 71.9 µM (inactive) in [18]. Moreover, the GI50 in assay [19] and in assay [20] was > 100 µM (inactive) throughout.
In the case of `Cn1c(=O)c2c(nc(NCCCCl)n2CC(=O)O)n(C)c1=O`, the GI50 in assay [1] is > 100 µM (inactive); in assay [2] it was > 100 µM (inactive); in assay [3], < 0.01 µM (active); in [4], > 100 µM (inactive); in [5], > 100 µM (inactive); in [6] it was > 100 µM (inactive). Further, the GI50 in [7], in assay [8], in assay [9], in assay [10], in [11] and in [12] was > 100 µM (inactive) in each case. Also, the GI50 in [13] was > 100 µM (inactive); in assay [14] it was > 100 µM (inactive); in assay [15] it was 2.74 µM (inactive); in [16], > 100 µM (inactive); in assay [17], > 100 µM (inactive); in assay [18], > 100 µM (inactive). Besides, the GI50 in assay [19] was > 100 µM (inactive).
As for `Cn1c2ccccc2c2cc(-c3ccccc3)c3c(c21)C(=O)C=CC3=O`, the GI50 in assay [1] was 12.4 µM (inactive); in assay [2], 27.6 µM (inactive); in assay [3] it was 3.31 µM (inactive); in assay [4], 20 µM (inactive); in [5], 41.3 µM (inactive); in assay [6], 21.6 µM (inactive). Moreover, the GI50 was 34.1 µM (inactive) in [7]; 12.3 µM (inactive) in [8]; 17.5 µM (inactive) in [9]; 15.8 µM (inactive) in [10]; > 88.1 µM (inactive) in assay [11]; 15.2 µM (inactive) in assay [12]. Besides, the GI50 was 22.4 µM (inactive) in assay [13]; 23.2 µM (inactive) in assay [14]; 3.59 µM (inactive) in [15]; 19.8 µM (inactive) in [16]; 60.1 µM (inactive) in assay [17]; 17.2 µM (inactive) in assay [18]. Further, the GI50 was 15.1 µM (inactive) in [19] and 19.5 µM (inactive) in assay [20].
For the compound `CNC1=Nc2ccccc2C(=O)N2CSCC12` (stereo unspecified), the GI50 in assay [1], in [2], in assay [3], in assay [4], in [5] and in assay [6] was > 100 µM (inactive) each time. Also, the GI50 in assay [7] was > 100 µM (inactive); in [8], > 100 µM (inactive); in assay [9], 23.9 µM (inactive); in assay [10] it was > 100 µM (inactive); in assay [11], > 100 µM (inactive); in [12], > 100 µM (inactive). In addition, the GI50 in assay [13], in assay [14], in [15], in assay [16], in assay [17] and in assay [19] was > 100 µM (inactive) each time. Further, the GI50 in assay [20] is > 100 µM (inactive).
With `COC1CCC(OS(C)(=O)=O)C(C)O1` (stereo unspecified), the GI50 in [1], in assay [2], in assay [3], in assay [4], in assay [5] and in assay [6] was > 10 µM (inactive) throughout. The GI50 in assay [7], in [8], in [9], in assay [10], in assay [11] and in [12] was > 10 µM (inactive) throughout. For the same compound, the GI50 in assay [13], in assay [14], in [15], in assay [17], in [18] and in [19] was > 10 µM (inactive) throughout. In [20], the GI50 was > 10 µM (inactive).
Take `CC(C(N)=O)N(C)C(=O)c1cnc2ccccc2c1` (stereo unspecified): the GI50 in assay [1], in assay [2], in assay [3], in assay [4], in [5] and in assay [6] was > 100 µM (inactive) each time. For the same compound, the GI50 in assay [7], in [8], in [9], in [10], in assay [12] and in assay [13] was > 100 µM (inactive) throughout. In addition, the GI50 was > 100 µM (inactive) in assay [14]; > 100 µM (inactive) in [15]; > 100 µM (inactive) in assay [16]; > 100 µM (inactive) in assay [17]; > 10 µM (inactive) in [18]; > 100 µM (inactive) in assay [19]. Moreover, in [20], the GI50 is > 100 µM (inactive).
Turning to `C1COCCN1.CN(C)c1ccc(-c2c(C#N)c(N)nc(S)c2C#N)cc1`, the GI50 in [1] is 83 µM (inactive); in [2], 34.3 µM (inactive); in assay [3], 23.2 µM (inactive); in [5], > 100 µM (inactive); in assay [6], 82.4 µM (inactive); in [7], 56.1 µM (inactive). Further, the GI50 in [8] is 53.1 µM (inactive); in [9], 29 µM (inactive); in assay [10], 23.5 µM (inactive); in assay [11], > 100 µM (inactive); in [12], 22.6 µM (inactive); in [13], 34.4 µM (inactive). In addition, the GI50 is 34.4 µM (inactive) in assay [14]; 64.1 µM (inactive) in [16]; > 100 µM (inactive) in assay [17]; 60 µM (inactive) in assay [18]; 83.4 µM (inactive) in assay [19]; > 100 µM (inactive) in assay [20].
For `CC[C@@H]([C@H](O)c1ccccc1Cl)[N+](=O)[O-]`, the GI50 in assay [1] is > 100 µM (inactive); in assay [2], 65.6 µM (inactive); in assay [3], 0.324 µM (active); in assay [4] it was > 100 µM (inactive); in assay [5] it was > 100 µM (inactive); in assay [6], > 100 µM (inactive). Further, the GI50 in assay [7] is > 100 µM (inactive); in assay [8] it was 16.4 µM (inactive); in assay [9] it was 90.4 µM (inactive); in assay [10], > 100 µM (inactive); in assay [11], > 100 µM (inactive); in assay [12], > 100 µM (inactive). Also, the GI50 in assay [13] was > 100 µM (inactive); in assay [14] it was > 100 µM (inactive); in assay [16], > 100 µM (inactive); in assay [17], > 100 µM (inactive); in assay [18], > 100 µM (inactive); in [19], 25.8 µM (inactive).
For the compound `O=C(O)CCc1c2ccc(=O)c(O)c-2oc2c(O)c(O)ccc12`, the GI50 in [1] was 87.5 µM (inactive); in assay [2], 24.9 µM (inactive); in assay [3], 37.2 µM (inactive); in [4], 29.3 µM (inactive); in [5] it was > 100 µM (inactive); in [6] it was > 100 µM (inactive). The GI50 was 8.55 µM (inactive) in [7]; 14.8 µM (inactive) in [8]; 27.4 µM (inactive) in assay [9]; > 100 µM (inactive) in [10]; > 100 µM (inactive) in assay [11]; > 100 µM (inactive) in assay [13]. Also, the GI50 in assay [14] was 20.6 µM (inactive); in [15], 23.3 µM (inactive); in assay [16], > 100 µM (inactive); in assay [17] it was > 100 µM (inactive); in assay [18], 61.4 µM (inactive); in [19], 17.1 µM (inactive). In assay [20], the GI50 is 26.4 µM (inactive).
